Values of other authors, collected in patent US5807732A, “GDP-L-fucose: β-D-galactoside 2-α-L-fucosyltransferases, DNA sequences encoding the same, method for producing the same and a method of genotyping a person” (priority 1995, dated 1998).
Where “and” joins values, the source holds several entries; their conditions need not be identical. Identical values can stand only once. Like-named read-outs stand apart in the source and are kept apart here. Each block holds one molecule with its values, some of them ahead of it.

Tests used:
[1] = tested on: Secretor α(1,2)fucosyltransferase; settings: read-out: Apparent Km
[2] = molecular target: T1, H α(1,2)fucosyltransferase (Homo sapiens, UniProt P19526); settings: enzyme H; literature values; read-out: Apparent Km
T1 sequence (P19526 1-365): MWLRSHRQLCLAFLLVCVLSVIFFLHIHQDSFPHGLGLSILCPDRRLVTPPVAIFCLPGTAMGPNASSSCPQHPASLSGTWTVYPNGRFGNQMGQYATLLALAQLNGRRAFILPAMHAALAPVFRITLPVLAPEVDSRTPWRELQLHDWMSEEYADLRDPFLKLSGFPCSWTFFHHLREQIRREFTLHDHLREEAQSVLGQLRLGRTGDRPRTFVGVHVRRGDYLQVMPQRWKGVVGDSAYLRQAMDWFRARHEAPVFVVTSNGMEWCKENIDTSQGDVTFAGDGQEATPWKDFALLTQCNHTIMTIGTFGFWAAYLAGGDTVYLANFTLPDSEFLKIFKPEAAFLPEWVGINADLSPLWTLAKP

transfected COS-7 cells = settings: expressed in COS-7 cells
[3] = enzyme Secretor, literature values

Molecule: C[C@@H]1O[C@H](OP(=O)(O)OP(=O)(O)OC[C@H]2O[C@@H](n3cnc4c(=O)[nH]c(N)nc43)[C@H](O)[C@@H]2O)[C@@H](O)[C@H](O)[C@@H]1O [GDP-fucose]
Km [1, 3]: 108 µM and 123 µM

Molecule: CC(=O)N[C@H]1[C@H](O[C@H]2[C@@H](O)[C@@H](CO)O[C@@H](O[C@H]3[C@H](O)[C@@H](O)C(O)O[C@@H]3CO)[C@@H]2O)O[C@H](CO)[C@@H](O)[C@@H]1O[C@@H]1O[C@H](CO)[C@H](O)[C@H](O)[C@H]1O (stereo partly drawn) [lacto-N-tetraose]
Km [1, 3]: 1600 µM

B1: H blood group cDNA-encoded α(1,2)fucosyltransferase: human H blood group (FUT1) α(1,2)fucosyltransferase expressed from cDNA in COS-7 cells (protein, UniProt P19526 1-365, looked up)
Galactoside …: T1 sequence (P19526 1-365)
distribution of α(1,2)fucosyltransferase activity between cells and media (transfected COS-7 cells): largely cell-associated

Other lines, results leading:

Km [1, 3]: 1400 µM
Km [2]: 3500 µM
Molecule: COC1O[C@H](CO)[C@@H](O)[C@H](O[C@@H]2O[C@H](CO)[C@H](O)[C@H](O)[C@H]2O)[C@H]1NC(C)=O (stereo partly drawn) [lacto-N-biose I (--O--Me)]

Km [1, 3]: 1000 µM
Km [2]: 2000 µM
Molecule: CC(=O)N[C@H]1C(O)O[C@H](CO)[C@@H](O)[C@@H]1O[C@@H]1O[C@H](CO)[C@H](O)[C@H](O)[C@H]1O (stereo partly drawn) [lacto-N-biose I]

Km ([1]; human Secretor α(1,2)fucosyltransferase partially purified from human milk): 15100 µM
Km ([1]; human Secretor α(1,2)fucosyltransferase purified from human serum): 11400 µM
Molecule: OC[C@H]1O[C@@H](Oc2ccccc2)[C@H](O)[C@@H](O)[C@H]1O [phenyl-β-D-galactoside]
